For orientation: Km means the substrate concentration at which the rate is half of its maximum.

Data set [1] has as its target T1, proton-coupled folate transporter (PCFT) (Homo sapiens, UniProt Q96NT5).
T1 sequence (Q96NT5 1-459): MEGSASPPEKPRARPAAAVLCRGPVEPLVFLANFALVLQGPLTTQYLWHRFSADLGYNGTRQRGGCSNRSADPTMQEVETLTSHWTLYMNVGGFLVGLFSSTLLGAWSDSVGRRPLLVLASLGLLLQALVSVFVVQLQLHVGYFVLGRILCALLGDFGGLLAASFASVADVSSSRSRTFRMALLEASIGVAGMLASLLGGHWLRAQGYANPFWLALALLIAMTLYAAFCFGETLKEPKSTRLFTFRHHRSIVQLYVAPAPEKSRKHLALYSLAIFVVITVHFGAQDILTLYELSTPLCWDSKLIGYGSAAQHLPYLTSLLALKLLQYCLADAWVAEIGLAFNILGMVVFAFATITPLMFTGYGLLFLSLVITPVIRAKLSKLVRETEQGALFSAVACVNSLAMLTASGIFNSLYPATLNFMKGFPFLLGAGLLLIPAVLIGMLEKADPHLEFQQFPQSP
Briefly: tritiated influx in HeLa R1-PCFT versus R1-11 cells. The format is cell-based.

Substrate in data set [2]: C#CCC(Cc1cnc2nc(N)nc(N)c2n1)c1ccc(C(=O)N[C@@H](CCC(=O)O)C(=O)O)cc1
As to the kind of experiment: cells, lysate or membranes. The conditions noted are these: pH 7.4.

Consider `C#CCC(Cc1cnc2nc(N)nc(N)c2n1)c1ccc(C(=O)N[C@@H](CCC(=O)O)C(=O)O)cc1` (some centres unmarked) [pralatrexate], for which the “tritiated influx in HeLa R1-PCFT versus R1-11 cells (poor substrate)” value in data set [1] was “among the antifolates tested, pralatrexate was the poorest substrate for PCFT”.

B1: reduced folate carrier (RFC) (Homo sapiens) (protein)
chain: MVPSSPAVEKQVPVEPGPDPELRSWRHLVCYLCFYGFMAQIRPGESFITPYLLGPDKNFTREQVTNEITPVLSYSYLAVLVPVFLLTDYLRYTPVLLLQGLSFVSVWLLLLLGHSVAHMQLMELFYSVTMAARIAYSSYIFSLVRPARYQRVAGYSRAAVLLGVFTSSVLGQLLVTVGRVSFSTLNYISLAFLTFSVVLALFLKRPKRSLFFNRDDRGRCETSASELERMNPGPGGKLGHALRVACGDSVLARMLRELGDSLRRPQLRLWSLWWVFNSAGYYLVVYYVHILWNEVDPTTNSARVYNGAADAASTLLGAITSFAAGFVKIRWARWSKLLIAGVTATQAGLVFLLAHTRHPSSIWLCYAAFVLFRGSYQFLVPIATFQIASSLSKELCALVFGVNTFFATIVKTIITFIVSDVRGLGLPVRKQFQLYSVYFLILSIIYFLGAMLDGLRHCQRGHHPRQPPAQGLRSAAEEKAAQALSVQDKGLGGLQPAQSPPLSPEDSLGAVGPASLEQRQSDPYLAQAPAPQAAEFLSPVTTPSPCTLCSAQASGPEAADETCPQLAVHPPGVSKLGLQCLPSDGVQNVNQ
On to B1, for which the Km in data set [2] was 0.52 ± 0.2 µM.

The values are drawn from paper PMC3784351 (Cancer chemotherapy and pharmacology, 2013).
